Results on 15 compounds are retold here after patent publication US20260325533A1, “CDK INHIBITOR COMPOUNDS” (ALEKSIA THERAPEUTICS, INC., priority 2023, published 2026).

Read-outs that look alike come from different tables or passages of the source.

What all share (assay type): biochemical
For assay [1], the target named is CDK6/CCND1 (Homo sapiens, UniProt Q00534). The experiment in a line: CDK6 homogeneous time-resolved fluorescence (HTRF) kinase assay. The settings on record: >250 nM; CDK6/CCND; 1 mM ATP; read-out: CDK6/CCND IC50, >250 nM. In outline:
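Enzyme pre-incubated 20 min at 23 °C with compound, then reacted 60 min at 23 °C with 1 mM ATP and 50 nM ULight-4E-BP1 (Thr37/46) peptide; 1 nM enzyme, 1% DMSO. EDTA-stopped, Eu-anti-phospho antibody TR-FRET read (665 nm or 665/615 ratio); 11-point half-log titration from 10 μM gave IC50.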

Assay [2] has as its target CDK1/CCNB1 (Homo sapiens, UniProt P06493). Put plainly: CDK1 homogeneous time-resolved fluorescence (HTRF) kinase assay. The settings on record: >250 nM; CDK1/CCNB; read-out: CDK1/CCNB IC50 >250 nM. In outline: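 Read-out: TR-FRET (Eu anti-phospho-4E-BP1 Thr37/46 antibody, 2 nM; 665 nm or 665/615 ratio) after 60 min phosphorylation of 50 nM ULight-peptide by 0.5 nM CDK1/CCNB1 at 1 mM ATP, 23 °C. Compound preincubated 20 min with enzyme; 1% DMSO.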

The target in assay [3] is CDK2/CCNE1 (Homo sapiens, UniProt P24941). Put plainly: CDK2 homogeneous time-resolved fluorescence (HTRF) kinase assay. The settings on record: CDK2/CCNE. In outline:
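3 nM CDK2/CCNE1 was preincubated with compound for 20 min at 23 °C in HEPES buffer (pH not stated), then reacted 60 min with 1 mM ATP and 50 nM ULight-4E-BP1 (Thr37/46) peptide. After EDTA stop, Eu-anti-phospho-4E-BP1 antibody (2 nM) was added for 60 min and TR-FRET read at 665 nm.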

The target of assay [4] is CDK4/CCND3 (Homo sapiens, UniProt P11802). The experiment in a line: CDK4 homogeneous time-resolved fluorescence (HTRF) kinase assay. The settings on record: >250 nM; CDK4/CCND; read-out: CDK4/CCND IC50, >250 nM. The method in brief: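 Steps: compound plus 1.5 nM CDK4/CCND3, 20 min, 23 °C; add 1 mM ATP and 50 nM ULight-4E-BP1 (Thr37/46) peptide, 60 min; stop with 10 mM EDTA; add 2 nM Eu anti-phospho antibody, 60 min; read 665 nm. IC50 from 11-point half-log series starting 10 μM.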
CDK4/CCND3, sequence (P11802 whole entry): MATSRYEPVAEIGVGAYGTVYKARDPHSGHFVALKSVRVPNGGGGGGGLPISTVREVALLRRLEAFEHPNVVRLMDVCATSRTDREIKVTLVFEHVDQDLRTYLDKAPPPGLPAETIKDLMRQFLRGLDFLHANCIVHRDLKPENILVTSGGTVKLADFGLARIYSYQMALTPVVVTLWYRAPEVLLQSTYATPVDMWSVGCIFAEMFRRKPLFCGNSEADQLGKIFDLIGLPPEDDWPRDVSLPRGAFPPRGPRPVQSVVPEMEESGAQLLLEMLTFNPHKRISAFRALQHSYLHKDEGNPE
CDK4/CCND3, sequence (P30281 whole entry partner): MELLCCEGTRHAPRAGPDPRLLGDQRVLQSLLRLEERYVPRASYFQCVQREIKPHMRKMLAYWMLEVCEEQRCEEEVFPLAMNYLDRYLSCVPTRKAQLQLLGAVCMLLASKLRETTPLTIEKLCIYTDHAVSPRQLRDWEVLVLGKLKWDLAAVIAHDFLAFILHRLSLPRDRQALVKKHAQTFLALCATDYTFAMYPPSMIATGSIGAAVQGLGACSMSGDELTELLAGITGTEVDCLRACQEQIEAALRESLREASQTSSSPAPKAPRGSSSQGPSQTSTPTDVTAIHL

[5] abbreviates: 25-250 nM, read-out: CDK2/CCNE IC50, 25-250 nM.
Setting [6] is: <25 nM, read-out: CDK2/CCNE IC50, <25 nM.

CDK1/CCNB1, sequence (P06493 whole entry): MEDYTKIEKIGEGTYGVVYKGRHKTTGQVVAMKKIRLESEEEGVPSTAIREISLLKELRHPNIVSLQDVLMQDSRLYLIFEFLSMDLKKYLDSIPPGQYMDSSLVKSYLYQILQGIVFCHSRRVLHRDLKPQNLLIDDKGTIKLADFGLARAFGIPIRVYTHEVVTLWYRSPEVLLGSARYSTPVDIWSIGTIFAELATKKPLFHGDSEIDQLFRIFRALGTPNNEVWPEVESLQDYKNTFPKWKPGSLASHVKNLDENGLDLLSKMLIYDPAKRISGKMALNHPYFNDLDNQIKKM
CDK1/CCNB1, sequence (P14635 whole entry partner): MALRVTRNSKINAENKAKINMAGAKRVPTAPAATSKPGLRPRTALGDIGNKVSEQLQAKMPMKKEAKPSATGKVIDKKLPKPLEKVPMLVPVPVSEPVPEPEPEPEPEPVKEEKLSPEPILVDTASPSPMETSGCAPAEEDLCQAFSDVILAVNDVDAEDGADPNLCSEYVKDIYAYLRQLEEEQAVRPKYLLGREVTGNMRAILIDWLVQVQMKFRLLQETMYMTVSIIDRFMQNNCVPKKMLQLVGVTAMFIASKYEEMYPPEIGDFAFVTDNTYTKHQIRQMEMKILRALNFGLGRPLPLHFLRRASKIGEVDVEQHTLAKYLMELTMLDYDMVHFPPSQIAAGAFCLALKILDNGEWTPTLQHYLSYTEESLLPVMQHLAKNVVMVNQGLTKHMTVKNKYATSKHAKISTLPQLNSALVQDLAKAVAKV
CDK6/CCND1, sequence (Q00534 whole entry): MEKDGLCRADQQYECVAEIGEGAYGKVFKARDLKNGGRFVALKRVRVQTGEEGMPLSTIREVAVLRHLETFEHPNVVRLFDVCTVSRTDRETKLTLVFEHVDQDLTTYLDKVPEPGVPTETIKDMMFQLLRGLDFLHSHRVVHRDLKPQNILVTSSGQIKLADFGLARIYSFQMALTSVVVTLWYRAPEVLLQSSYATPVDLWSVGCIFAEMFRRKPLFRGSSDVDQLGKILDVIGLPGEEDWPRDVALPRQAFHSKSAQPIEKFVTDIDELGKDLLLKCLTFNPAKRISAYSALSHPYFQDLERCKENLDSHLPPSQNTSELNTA
CDK6/CCND1, sequence (P24385 whole entry partner): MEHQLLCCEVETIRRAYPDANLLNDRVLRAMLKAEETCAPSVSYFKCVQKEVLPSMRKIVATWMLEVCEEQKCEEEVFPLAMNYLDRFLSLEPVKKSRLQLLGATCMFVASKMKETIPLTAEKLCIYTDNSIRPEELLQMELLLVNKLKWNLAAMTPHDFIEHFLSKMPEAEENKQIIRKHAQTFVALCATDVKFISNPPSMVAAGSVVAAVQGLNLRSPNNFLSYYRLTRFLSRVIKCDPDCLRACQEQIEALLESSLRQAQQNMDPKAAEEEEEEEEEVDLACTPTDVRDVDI

`COc1ccc(NS(=O)(=O)c2ccc(Nc3cc4c(-c5ccc6c(cnn6CC(O)(C(F)(F)F)C(F)(F)F)c5C)nccc4cn3)cc2)nc1N1CCOCC1` [Ex 697, N-(5-methoxy-6-morpholinopyridin-2-yl)-4-((5-(4-methyl-1-(3,3,3-trifluoro-2-hydroxy-2-(trifluoromethyl)propyl)-1H-indazol-5-yl)-2,6-naphthyridin-3-yl)amino)benzenesulfonamide]: the IC50 is greater than 250 nM in assay [1], greater than 250 nM in assay [2], 25 to 250 nM in assay [3] (setting [5]) and greater than 250 nM in assay [4].

`Cc1cnc(NS(=O)(=O)c2ccc(Nc3cc4c(-c5ccc6c(cnn6CC(O)(C(F)(F)F)C(F)(F)F)c5C)nccc4cn3)cc2)cc1N1CCOCC1` [Ex 701, 4-((5-(4-methyl-1-(3,3,3-trifluoro-2-hydroxy-2-(trifluoromethyl)propyl)-1H-indazol-5-yl)-2,6-naphthyridin-3-yl)amino)-N-(5-methyl-4-morpholinopyridin-2-yl)benzenesulfonamide]: the IC50 in assay [1] was greater than 250 nM; in assay [2] it was greater than 250 nM; in assay [3] (setting [6]), less than 25 nM; in assay [4], greater than 250 nM.

Regarding `COc1cnc(NS(=O)(=O)c2ccc(Nc3cc4c(-c5ccc6c(cnn6CC(O)(C(F)(F)F)C(F)(F)F)c5C)nccc4cn3)cc2)nc1N1CCOCC1` [Ex 702, N-(5-methoxy-4-morpholinopyrimidin-2-yl)-4-((5-(4-methyl-1-(3,3,3-trifluoro-2-hydroxy-2-(trifluoromethyl)propyl)-1H-indazol-5-yl)-2,6-naphthyridin-3-yl)amino)benzenesulfonamide], the IC50 is greater than 250 nM in assay [1], greater than 250 nM in assay [2], less than 25 nM in assay [3] (setting [6]) and greater than 250 nM in assay [4].

As to `COc1cc(NS(=O)(=O)c2ccc(Nc3cc4c(-c5ccc6c(cnn6CC(O)(C(F)(F)F)C(F)(F)F)c5C)nccc4cn3)cc2)nc(N2CCOCC2)c1` [Ex 703, N-(4-methoxy-6-morpholinopyridin-2-yl)-4-((5-(4-methyl-1-(3,3,3-trifluoro-2-hydroxy-2-(trifluoromethyl)propyl)-1H-indazol-5-yl)-2,6-naphthyridin-3-yl)amino)benzenesulfonamide], the IC50 in assay [1] is greater than 250 nM; in assay [2], greater than 250 nM; in assay [3] (setting [5]) it was 25 to 250 nM; in assay [4], greater than 250 nM.

With `COc1cc(N2CCOCC2)cc(NS(=O)(=O)c2ccc(Nc3cc4c(-c5ccc6c(cnn6CC(O)(C(F)(F)F)C(F)(F)F)c5C)nccc4cn3)cc2)n1` [Ex 704, N-(6-methoxy-4-morpholinopyridin-2-yl)-4-((5-(4-methyl-1-(3,3,3-trifluoro-2-hydroxy-2-(trifluoromethyl)propyl)-1H-indazol-5-yl)-2,6-naphthyridin-3-yl)amino)benzenesulfonamide], the IC50 was greater than 250 nM in assay [1], greater than 250 nM in assay [2], 25 to 250 nM in assay [3] (setting [5]) and greater than 250 nM in assay [4].

For `Cc1cnc(NS(=O)(=O)c2ccc(Nc3cc4c(-c5ccc6c(cnn6CC(O)(C(F)(F)F)C(F)(F)F)c5C)nccc4cn3)cc2)nc1N1CCOCC1` [Ex 706, 4-((5-(4-methyl-1-(3,3,3-trifluoro-2-hydroxy-2-(trifluoromethyl)propyl)-1H-indazol-5-yl)-2,6-naphthyridin-3-yl)amino)-N-(5-methyl-4-morpholinopyrimidin-2-yl)benzenesulfonamide], the IC50 in assay [1] was greater than 250 nM; in assay [2], greater than 250 nM; in assay [3] (setting [6]) it was less than 25 nM; in assay [4], greater than 250 nM.

In the case of `COc1cc(N2CCOCC2)nc(NS(=O)(=O)c2ccc(Nc3cc4c(-c5ccc6c(cnn6CC(O)(C(F)(F)F)C(F)(F)F)c5C)nccc4cn3)cc2)n1` [Ex 707, N-(4-methoxy-6-morpholinopyrimidin-2-yl)-4-((5-(4-methyl-1-(3,3,3-trifluoro-2-hydroxy-2-(trifluoromethyl)propyl)-1H-indazol-5-yl)-2,6-naphthyridin-3-yl)amino)benzenesulfonamide], the IC50 in assay [1] was greater than 250 nM; in assay [2] it was greater than 250 nM; in assay [3] (setting [6]), less than 25 nM; in assay [4] it was greater than 250 nM.

For `COc1ccc(NS(=O)(=O)c2ccc(Nc3cc4c(-c5ccc6c(cnn6CC(O)(C(F)(F)F)C(F)(F)F)c5C)nccc4cn3)cc2)cc1C(C)(C)O` [Ex 709, N-(3-(2-hydroxypropan-2-yl)-4-methoxyphenyl)-4-((5-(4-methyl-1-(3,3,3-trifluoro-2-hydroxy-2-(trifluoromethyl)propyl)-1H-indazol-5-yl)-2,6-naphthyridin-3-yl)amino)benzenesulfonamide], the IC50 in assay [1] is greater than 250 nM; in assay [2], greater than 250 nM; in assay [3] (setting [5]) it was 25 to 250 nM; in assay [4] it was greater than 250 nM.

Turning to `Cc1c(-c2nccc3cnc(Nc4ccc(S(=O)(=O)Nc5cc(C(C)(C)O)ccn5)cc4)cc23)ccc2c1cnn2CC(O)(C(F)(F)F)C(F)(F)F` [Ex 710, N-(4-(2-hydroxypropan-2-yl)pyridin-2-yl)-4-((5-(4-methyl-1-(3,3,3-trifluoro-2-hydroxy-2-(trifluoromethyl)propyl)-1H-indazol-5-yl)-2,6-naphthyridin-3-yl)amino)benzenesulfonamide], the IC50 in assay [1] was greater than 250 nM; in assay [2] it was greater than 250 nM; in assay [3] (setting [6]), less than 25 nM; in assay [4] it was greater than 250 nM.

Consider `Cc1c(-c2nccc3cnc(Nc4ccc(S(=O)(=O)Nc5cccc(C(C)(C)O)n5)cc4)cc23)ccc2c1cnn2CC(O)(C(F)(F)F)C(F)(F)F` [Ex 711, N-(6-(2-hydroxypropan-2-yl)pyridin-2-yl)-4-((5-(4-methyl-1-(3,3,3-trifluoro-2-hydroxy-2-(trifluoromethyl)propyl)-1H-indazol-5-yl)-2,6-naphthyridin-3-yl)amino)benzenesulfonamide], for which the IC50 is greater than 250 nM in assay [1], greater than 250 nM in assay [2], less than 25 nM in assay [3] (setting [6]) and greater than 250 nM in assay [4].

Consider `Cc1c(-c2nccc3cnc(Nc4ccc(S(=O)(=O)Nc5cccc(C(C)(C)O)c5)cc4)cc23)ccc2c1cnn2CC(O)(C(F)(F)F)C(F)(F)F` [Ex 712, N-(3-(2-hydroxypropan-2-yl)phenyl)-4-((5-(4-methyl-1-(3,3,3-trifluoro-2-hydroxy-2-(trifluoromethyl)propyl)-1H-indazol-5-yl)-2,6-naphthyridin-3-yl)amino)benzenesulfonamide], for which the IC50 in assay [1] is greater than 250 nM; in assay [2], greater than 250 nM; in assay [3] (setting [5]), 25 to 250 nM; in assay [4], greater than 250 nM.

In the case of `Cc1c(-c2nccc3cnc(Nc4ccc(S(=O)(=O)Nc5ccccc5N5CCOCC5)cc4)cc23)ccc2c1cnn2CC(O)(C(F)(F)F)C(F)(F)F` [Ex 713, 4-((5-(4-methyl-1-(3,3,3-trifluoro-2-hydroxy-2-(trifluoromethyl)propyl)-1H-indazol-5-yl)-2,6-naphthyridin-3-yl)amino)-N-(2-morpholinophenyl)benzenesulfonamide], the IC50 is greater than 250 nM in assay [1], greater than 250 nM in assay [2], 25 to 250 nM in assay [3] (setting [5]) and greater than 250 nM in assay [4].

`COc1ccccc1NS(=O)(=O)c1ccc(Nc2cc3c(-c4ccc5c(cnn5CC(O)(C(F)(F)F)C(F)(F)F)c4C)nccc3cn2)cc1` [Ex 714, N-(2-methoxyphenyl)-4-((5-(4-methyl-1-(3,3,3-trifluoro-2-hydroxy-2-(trifluoromethyl)propyl)-1H-indazol-5-yl)-2,6-naphthyridin-3-yl)amino)benzenesulfonamide]: the IC50 in assay [1] was greater than 250 nM; in assay [2] it was greater than 250 nM; in assay [3] (setting [5]), 25 to 250 nM; in assay [4], greater than 250 nM.

Consider `Cc1ccccc1NS(=O)(=O)c1ccc(Nc2cc3c(-c4ccc5c(cnn5CC(O)(C(F)(F)F)C(F)(F)F)c4C)nccc3cn2)cc1` [Ex 715, 4-((5-(4-methyl-1-(3,3,3-trifluoro-2-hydroxy-2-(trifluoromethyl)propyl)-1H-indazol-5-yl)-2,6-naphthyridin-3-yl)amino)-N-(o-tolyl)benzenesulfonamide], for which the IC50 was greater than 250 nM in assay [1]; greater than 250 nM in assay [2]; greater than 250 nM in assay [3] (>250 nM, read-out: CDK2/CCNE IC50, >250 nM); greater than 250 nM in assay [4].

Consider `COc1cccc(NS(=O)(=O)c2ccc(Nc3cc4c(-c5ccc6c(cnn6CC(O)(C(F)(F)F)C(F)(F)F)c5C)nccc4cn3)cc2)c1` [Ex 717, N-(3-methoxyphenyl)-4-((5-(4-methyl-1-(3,3,3-trifluoro-2-hydroxy-2-(trifluoromethyl)propyl)-1H-indazol-5-yl)-2,6-naphthyridin-3-yl)amino)benzenesulfonamide], for which the IC50 was greater than 250 nM in assay [1], greater than 250 nM in assay [2], 25 to 250 nM in assay [3] (setting [5]) and greater than 250 nM in assay [4].
